Converted amounts (≈) assume the structure as drawn. Like-named read-outs stand apart in the source and are kept apart here. Peptide text beside a SMILES is read from it.
Assays:
A. keratiniphila [1] = test: Elicitor screening, supernatants in liquid bioassay against E. coli; format: cell-based, Amycolatopsis kerathiniphila; conditions: A. keratiniphila grown with ~33 μM elicitor; supernatant on E. coli, OD600 nm
Procedure: (§1) For the high-throughput-elicitor screening portion of this example, the procedure is described for S. hiroshimensis. An identical procedure was used for S. lavendulae and A. keratiniphila. […] The culture was incubated at 30° C./250 rpm for two days. Then, the mycelia cell mass was pelleted by centrifugation, the supernatant discarded, and a stock solution of 100 mg/mL cell mass was generated in R4 medium. The stock solution was used to prepare the appropriate volume (see below) of R4 medium containing 0.5 mg/mL mycelia cell mass in a 250 mL Erlenmeyer flask. The suspension was homogenized by stirring at room temperature. Subsequently, a MultiFlow Dispenser (from Biotek, Inc.) was used to dispense 150 μL of the suspension into each well of six sterile round bottom 96 well plates (from Corning, Inc.). Candidate elicitors were added from a commercially-available 502-member Natural Products Library (from Enzo Life Sciences, Inc.) using a CYBI-WELL™ automated liquid transfer robot (from CyBio AG). A volume of 0.5 μL was transferred from the compound library into each well to give a final concentration of ^˜33 μM. Then each plate was covered with a BREATHE-EASY® sealing membrane (from MilliporeSigma) and cultured at 30° C./200 rpm for 5 days. Humidity was maintained in the shaker/incubator by incubating several flasks containing sterile water.
Assays against E. coli were also carried out. In this case, broader elicitation screens were conducted using a ˜500-member natural product library as the source of potential inducers. To increase the throughput of the assays, liquid bioassays were used. […]
From the elicitor plates, after culturing for 5 days, the plates were spun down in a 96-well plate centrifuge and the supernatants (10 μL) transferred to fresh 96-well assay plates, each well containing 100 μL LB-E. coli culture, with the E. coli cells inoculated to an initial OD600 nm OD600 nm of 0.002. The assay plates were cultured at 37° C./200 rpm overnight (10-12 h) and OD600 nm was then determined using a plate reader. […]

S. cebuensis [2] = test: Elicitor screening, supernatants on E. coli cultures (OD600 nm); format: cell-based, Saccharopolyspora cebuensis; conditions: S. cebuensis grown with elicitor, supernatant on E. coli
Procedure: Wild-type S. cebuensis cultures were transferred to 96 well-plates and each well was robotically supplemented with a compound from a commercial small molecule library as a source of elicitors. […] To grow the cells, the plates were incubated for a defined period. […] The OD600 nm from each well was normalized and the % E. coli growth thus obtained was plotted as a function of each elicitor, allowing one to identify at least one elicitor corresponding to a second activity greater than the first activity.

E. coli = test: In-house bioactivity assays of induced peaks and purified taylorflavins; format: cell-based
E. coli ATCC 25922 = test: Minimal inhibitory concentration (CLSI methods); format: cell-based
Procedure: (§2) Antibacterial assays with taylorflavin B (8) were carried out by Micromyx, LLC in accordance with methods from the Clinical and Laboratory Standards Institute. Minimal inhibitory concentrations were determined with the following strains: E. coli ATCC 25922, A. baumannii ATCC 19606, V. cholerae BAA-2163, N. gonorrhoeae ATCC 49226, P. aeruginosa ATCC 27853, K. pneumoniae MMX 214. S. aureus ATCC 29213, S. aureus MMX 2011, S. pneumoniae ATCC 49619, S. pyogenes MMX 6253, S. agalactiae MMX 6189, E. faecalis ATCC 29212, E. faecalis MMX 486, B. subtilis ATCC 6633, C. difficile ATCC 700057, B. fragilis ATCC 25285. Assays with taylorflavin A (7) were carried in-house according to the same protocols.

S. aureus ATCC 29213 = test: Minimal inhibitory concentration (CLSI methods); format: cell-based
Procedure: as §2

P. aeruginosa ATCC 27853 = test: Minimal inhibitory concentration (CLSI methods); format: cell-based
Procedure: as §2

B. subtilis ATCC 6633 = test: Minimal inhibitory concentration (CLSI methods); format: cell-based
Procedure: as §2

S. hiroshimensis [3] = test: Elicitor screening, supernatants in liquid bioassay against E. coli; format: cell-based, Streptomyces hiroshimensis; conditions: S. hiroshimensis grown with ~33 μM elicitor; supernatant on E. coli, OD600 nm
Procedure: as §1, with “A volume of 0.5 μL was transferred from the compound library into each well to give a final concentration of ^˜33 μM.” left out
(§3) Assays against E. coli were also carried out. In this case, broader elicitation screens were conducted using a ˜500-member natural product library as the source of potential inducers. To increase the throughput of the assays, liquid bioassays were used. Rather than manually spotting each disc, the supernatants were screened by robotically transferring the supernatant from the elicitor plate to 96-well plates inoculated with the E. coli test strain.
(§4) From the elicitor plates, after culturing for 5 days, the plates were spun down in a 96-well plate centrifuge and the supernatants (10 μL) transferred to fresh 96-well assay plates, each well containing 100 μL LB-E. coli culture, with the E. coli cells inoculated to an initial OD600 nm OD600 nm of 0.002. The assay plates were cultured at 37° C./200 rpm overnight (10-12 h) and OD600 nm was then determined using a plate reader. To generate the plot in FIG. 3, the OD600 nm from each well was divided by the average OD600 nm from the entire plate and multiplied by 100 to give the percent growth. This normalization was carried out to account for plate-to-plate variation in growth rates.

S. lavendulae = test: as above; format: cell-based, Streptomyces lavendulae; conditions: S. lavendulae grown with ~33 μM elicitor; supernatant on E. coli, OD600 nm
Procedure: as §1, §3
as §4, with “rates. The results for the entire library are shown for S. lavendulae in FIG. 3. The two wells with the highest stimulation (301, 302) and highest inhibition (303, 304) are indicated.” for “rates.”

A. keratiniphila [4] = test: Elicitor screening, supernatants in disc diffusion assays against B. subtilis; format: cell-based, Amycolatopsis kerathiniphila; conditions: A. keratiniphila grown with ~33 μM elicitor, 5 days; supernatant on B. subtilis disc diffusion
Procedure: as §1, with “Then each plate was covered with a BREATHE-EASY® sealing membrane (from MilliporeSigma) and cultured at 30° C./200 rpm for 5 days. Humidity was maintained in the shaker/incubator by incubating several flasks containing sterile water.” left out
The resulting agar plates were assessed visually, and subsequently examined visually for halos. To generate FIG. 2, the halo diameter, if any, was measured and categorized as none (n), weak (w), medium (m), or strong (s) inhibition. […]

S. cebuensis [5] = test: Validation of elicitors: agar disc diffusion assays; format: cell-based, Saccharopolyspora cebuensis; conditions: supernatants of S. cebuensis grown with elicitor
S. hiroshimensis [6] = test: Elicitor screening, supernatants in disc diffusion assays against B. subtilis; format: cell-based, Streptomyces hiroshimensis; conditions: S. hiroshimensis grown with ~33 μM elicitor, 5 days; supernatant on B. subtilis disc diffusion
Procedure: as §1, with “Candidate elicitors were added from a commercially-available 502-member Natural Products Library (from Enzo Life Sciences, Inc.) using a CYBI-WELL™ automated liquid transfer robot (from CyBio AG). A volume of 0.5 μL was transferred from the compound library into each well to give a final concentration of ^˜33 μM.” left out

Question: For `Cc1cn([C@H]2C[C@H](N=[N+]=[N-])[C@@H](CO)O2)c(=O)[nH]c1=O` [AZT], which “effect of elicitor-induced metabolome on E. coli growth” value (“effect of elicitor-induced metabolome” below) (A. keratiniphila [1]) is on record?
Answer: The value was “produce growth-inhibitory compounds”.

Question: `CCCCC(CC)COC(=O)CC(C(=O)OCC(CC)CCCC)S(=O)(=O)[O-].[Na+]` (stereo not shown) [Na-docusate] was tested. Which “effect of elicitor-induced metabolome” value (S. cebuensis [2]) did it give?
Answer: The value was “stimulated E. coli growth best”.

Question: Which “antibiotic activity / inhibition of E. coli growth” value (E. coli) does the source give for `Cn1nc2[nH]c(=O)n(C)c(=O)c2nc1=O` [Taylorflavin A] here?
Answer: The value was “antibiotic activity”.

Question: What about the “minimal inhibitory concentration (MIC)” value (E. coli ATCC 25922) of the same compound?
Answer: Its value is 37.5 µg/mL (≈ 179 µM).

Question: What about the “minimal inhibitory concentration (MIC)” value (S. aureus ATCC 29213) of the same compound?
Answer: The value was over 64 µg/mL.

Question: And the “minimal inhibitory concentration (MIC)” value (S. aureus ATCC 29213; listed as taylorflavin A)?
Answer: Its value is “Significantly weaker activity”.

Question: And the “minimal inhibitory concentration (MIC)” value (P. aeruginosa ATCC 27853)?
Answer: Its value is 25 µg/mL (≈ 120 µM).

Question: What about the “minimal inhibitory concentration (MIC)” value (B. subtilis ATCC 6633) of the same compound?
Answer: The value was over 64 µg/mL.

Question: What about the “minimal inhibitory concentration (MIC)” value (B. subtilis ATCC 6633; listed as taylorflavin A) of the same compound?
Answer: The value was “Significantly weaker activity”.

Question: How did the “effect of elicitor-induced metabolome” value (S. hiroshimensis [3]) turn out when `CC(=O)OC1CN2CCC1CC2` (stereo not shown) [aceclidine] was run?
Answer: The value was “most enhanced E. coli growth”.

Question: `NC(=O)NC1NC(=O)NC1=O` (stereo not shown) [allantoin] was tested. Which “effect of elicitor-induced metabolome” value (S. lavendulae) did it give?
Answer: Its value is “inhibited it”.

Question: With `COC(=O)[C@H](Cc1ccccc1)NC(=O)[C@@H](N)CC(=O)O` [aspartame] (H-Asp-Phe-OMe) as the compound, how does the “effect of elicitor-induced metabolome” value (A. keratiniphila [1]) read?
Answer: Its value is “enhanced E. coli growth”.

Question: `CC(=O)O[C@H]1C(=O)[C@@]2(C)[C@H]([C@H](OC(=O)c3ccccc3)[C@]3(O)C[C@H](O)C(C)=C1C3(C)C)[C@]1(OC(C)=O)CO[C@@H]1C[C@@H]2O` [baccatin III] was tested. Which “induction of zones of inhibition against B. subtilis” value (A. keratiniphila [4]) did it give?
Answer: The value was “gave rise to zones of inhibition”.

Question: For `C[C@H](CCC(=O)O)[C@H]1CC[C@H]2[C@@H]3[C@H](O)C[C@@H]4C[C@H](O)CC[C@]4(C)[C@H]3CC[C@]12C` [chenodiol], which “effect of elicitor-induced metabolome” value (S. lavendulae) is on record?
Answer: The value was “support E. coli growth best”.

Question: Which “effect of elicitor-induced metabolome” value (S. hiroshimensis [3]) does the source give for `CN(C)CC[C@@H](c1ccc(Cl)cc1)c1ccccn1` [dexchlorpheniramine] here?
Answer: Its value is “most enhanced E. coli growth”.

Question: How did the “halo of growth-inhibition in agar disc diffusion” value (S. cebuensis [5]) turn out when `NS(=O)(=O)c1cc(C(=O)O)c(NCc2ccco2)cc1Cl` [furosemide] was run?
Answer: Its value is “halo of growth-inhibition”.

Question: Which “effect of elicitor-induced metabolome” value (S. hiroshimensis [3]) does the source give for `N[C@H]1C(O)O[C@H](CO)[C@@H](O)[C@@H]1O` (stereo partly shown) [glucosamine] here?
Answer: The value was “most enhanced E. coli growth”.

Question: Which “effect of elicitor-induced metabolome” value (S. lavendulae) does the source give for `O[C@H]1[C@H](O)[C@@H](O)[C@H](O)[C@@H](O)[C@H]1O` [inositol] here?
Answer: Its value is “inhibited it”.

Question: How did the “effect of elicitor-induced metabolome” value (S. lavendulae) turn out when `CC(C)NCC(O)c1ccc(O)c(O)c1` (stereo not shown) [isoproterenol] was run?
Answer: The value was “support E. coli growth best”.

Question: For `COc1cc2oc(=O)ccc2cc1O` [isoscopoletin], which “induction of zones of inhibition against B. subtilis” value (A. keratiniphila [4]) is on record?
Answer: Its value is “gave rise to zones of inhibition”.

Question: How did the “effect of elicitor-induced metabolome” value (S. hiroshimensis [3]) turn out when `CC12CC3CC(C)(C1)CC(N)(C3)C2` [memantine] was run?
Answer: Its value is “inhibited E. coli growth best”.

Question: For `Cn1cc[nH]c1=S` [methimazole], which “effect of elicitor-induced metabolome” value (S. cebuensis [2]) is on record?
Answer: The value was “stimulated E. coli growth best”.

Question: For `CC[C@@H](CO)NC(=O)[C@@H]1C=C2c3cccc4[nH]cc(c34)C[C@H]2N(C)C1` [methylergonovine], which “effect of elicitor-induced metabolome” value (S. hiroshimensis [3]) is on record?
Answer: The value was “inhibited E. coli growth best”.

Question: With `NC(=O)CN1CCCC1=O` [piracetam] as the compound, how does the “effect of elicitor-induced metabolome” value (S. cebuensis [2]) read?
Answer: The value was “stimulated E. coli growth best”.

Question: How did the “induction of anti-B. subtilis metabolite(s)” value (S. hiroshimensis [6]) turn out when `COc1cc(NC(C)CCCN)c2ncccc2c1` (stereo not shown) [primaquine] was run?
Answer: The value was “appeared to elicit anti-B. subtilis metabolite(s)”.

Question: Which results are given for `CCN(CC)CCOC(=O)c1ccc(N)cc1` [procaine]?
Answer: induction of anti-B. subtilis metabolite(s) (S. hiroshimensis [6]): appeared to elicit anti-B. subtilis metabolite(s); effect of elicitor-induced metabolome on E. coli growth (S. cebuensis [2]): inhibited it

Question: Which “effect of elicitor-induced metabolome” value (A. keratiniphila [1]) does the source give for `CCN1CCCC1CNC(=O)c1cc(S(N)(=O)=O)ccc1OC` (stereo not shown) [sulpiride] here?
Answer: The value was “produce growth-inhibitory compounds”.
